# Assay: Cytotoxicity against human MONO-MAC 6 cells assessed as [3H]thymidine incorporation after 48 hrs
# Assay type: functional, cell-based
smiles,measurement,value
NC1=NC(=O)/C(=C2\CCNC(=O)c3[nH]c(Br)cc32)N1 [HYMENIALDISINE],IC50,0.2 µg/mL
NC1=N/C(=C2/CCNC(=O)c3[nH]ccc32)C(=O)N1 [DEBROMOHYMENIALDISINE],IC50,2.4 µg/mL

# From ChEMBL document CHEMBL1158004, “New alkaloids from the indopacific sponge Stylissa carteri” (J Nat Prod, 1999)
